Test results published in patent publication US20210354140A1, “MICROFLUIDIC DEVICE AND USES THEREOF” (Bar Ilan University, priority 2020, published 2021).
Entries after “also recorded” stand apart in the source; their conditions may differ. Like-named read-outs stand apart in the source and are kept apart here.

Legend:
[1] = system: pleural effusion samples from Non-small cell lung carcinoma patients; assay: CSRA of patient pleural effusion samples, Propidium iodide cell viability; type: cell-based, human; conditions: 15 μM, 24-hour exposure; samples from 8 patients
Method: The drug response of pleural effusion samples taken from 8 Non-small cell lung carcinoma patients was tested in a preliminary experiment. […] The genomic analysis could not predict however development of resistance. For each of the samples, the cells were first uploaded into the chip for a 24-hour acclimation period after which the cells were exposed different drugs. The 24 hours response to two […], Alectinib and Crizotinib (15 μM) is shown herein. Cell viability was measured using Propidium iodide, which dyes the nuclei of dead cells (magenta). It was known that the biopsies originated from patients that were treated with Alectinib and Crizotinib, however their response to each treatment was not known nor the order in which the drugs were administered, in order to avoid any sort of confirmation bias when collecting and analyzing the data. The moment when the pleural effusions were collected during the treatments was neither known. Crizotinib, like Alectinib is an ALK inhibitor and works by operating as a competitive inhibitor to the ATP binding site of the tyrosine kinase enzyme that the ALK gene codes for and in doing so prevents its carcinogenic activity. […] At the end of the 24-hour exposure period, the data from the experiments was analyzed and calculated to determine the survival and or mortality rate of the cells.

[2] = system: Non-small cell lung carcinoma patients; conditions: patients first treated with Alectinib, then replaced with Crizotinib; cited from earlier work
MCF7 cells = assay: Live/dead staining assay in microfluidic device after Docetaxel exposure, MCF7 cells; type: cell-based; set-up: dose or concentration left out as unconfirmed; conditions: Docetaxel for 2 hours, 48 hours after seeding; live/dead assay at T0, 5, 24, 48 hours; n=47; vs untreated control
Method: The cells were then dissociated from the culture dish at 60-70% confluence with 0.25% trypsin in PBS, resuspended in DMEM containing 10% FBS and introduced into the microfluidic device. […] MCF7/Dx cell line was grown in the presence of 10 ^M doxorubicin and cultured for 4 weeks in drug-free medium prior to use.
The evaluation of anticancer drug effect on cells vitality was conducted in two steps. First, Docetaxel was used, which is one of the first-line chemotherapies used for metastatic breast cancer. […] Then the cells, were incubated with the drug for 2 hours. Cell feeding, by diffusion, commenced until the experiment was finished. Live/dead assay was applied up to 48 hours following drug administration. […]
(§1) Statistical analysis was carried up using Microsoft Excel 2016 Data Analysis package and RStudio (RStudio Team (2015). RStudio: Integrated Development for R. RStudio, Inc., Boston, Mass.) Images were processed with NIS Elements Analysis software (ver. 40.20.01 Nikon, USA). For all experiments, variables are expressed as traditional boxplots, presenting median, maximum, minimum and Interquartiie range (IQR). […] In all cases, significance was defined as p<0.05, one way analysis of variance was evaluated using Anova, while multiple comparison was evaluated using Tukey's range test (post-hoc Anova analysis). […]

293T cells = assay: Live/dead staining assay in microfluidic device after Docetaxel exposure, 293T cells; type: cell-based; set-up: dose or concentration left out as unconfirmed; conditions: Docetaxel for 2 hours, 48 hours after seeding; live/dead assay at T0, 5, 24, 48 hours
Method: The evaluation of anticancer drug effect on cells vitality was conducted in two steps. First, Docetaxel was used, which is one of the first-line chemotherapies used for metastatic breast cancer. […] Then the cells, were incubated with the drug for 2 hours. Cell feeding, by diffusion, commenced until the experiment was finished. Live/dead assay was applied up to 48 hours following drug administration. After the evaluation of cells response to one drug-Docetaxel the effect was tested of an array of drugs on the cells. The drugs were printed on a glass substrate and their spotted array was aligned to the drug chamber in the microfluidic device.
Custom assays for cells vitality evaluation were applied. […]
as §1

[3] = system: cells in microfluidic cell chamber; assay: Dynamics of cell death following Docetaxel treatment (FIG. 6), PI staining in cell chambers; type: cell-based; conditions: Docetaxel 10 uM, 2 hours exposure, 50 drug chambers vs 50 control chambers
Method: FIG. 6A: Live images of a representative cell chamber before (T0) and after (up to 20 hours) exposure to Docetaxel (10 uM). Dead cells were stained with Red (PI).
FIG. 6B: Box plot analysis of the mortality rate (%) of cells following 2 hours of exposure to Docetaxel (10 uM)—T0. Nearly 100 cells chambers were analyzed, 50 following drug exposure and 50 control—no drug exposure. […] Two tail paired T-test analysis were conducted.
Custom assays for cells vitality evaluation were applied. Living cells were stained with Calcein-AM (50 ng/ul in DMEM medium) (Biotest, Israel) which colors the cytoplasm. Dead cells were stained with Propidium Iodide (PI) (Sigma, Israel) (15 ng/ul in DMEM medium), coloring the nuclear. […]
Statistical analysis was carried up using Microsoft Excel 2016 Data Analysis package and RStudio (RStudio Team (2015). RStudio: Integrated Development for R. RStudio, Inc., Boston, Mass.) Images were processed with NIS Elements Analysis software (ver. 40.20.01 Nikon, USA). For all experiments, variables are expressed as traditional boxplots, presenting median, maximum, minimum and Interquartiie range (IQR). […] In all cases, significance was defined as p<0.05, one way analysis of variance was evaluated using Anova, while multiple comparison was evaluated using Tukey's range test (post-hoc Anova analysis).

[4] = system: dispersed cells and cell clusters; assay: cells; type: cell-based
Method: Cells were exposed twice to Docetaxel once at a concentration of 1 μM and 24 hours later re-exposed to 10 μM Docetaxel for a period of 2 hrs. […] P value was determined using two-tail T-test (n=43).
FIG. 9A: Cells were exposed twice to Docetaxel once at a concentration of 1 μM and 48 hours later a second exposure to 10 μM. Images were taken 24 hours after the second drug exposure T24 (which is 120 hours post seeding).
Cells were exposed to 10 μM Docetaxel for 2 hours. The dynamic of cell death was detected using PI staining. […] Monitoring proceeded up to 28 hours.
Custom assays for cells vitality evaluation were applied. Living cells were stained with Calcein-AM (50 ng/ul in DMEM medium) (Biotest, Israel) which colors the cytoplasm. Dead cells were stained with Propidium Iodide (PI) (Sigma, Israel) (15 ng/ul in DMEM medium), coloring the nuclear. All cells nuclear (live and dead) were stained by Hoechst 33342 stain (Bis-Benzimide H3342 trihydro-chloride, Sigma, Israel) (10 ng/μl in DMEM medium). A solution of all three dyes was prepared and flowed within the chip. The cells were washed with the solution for 20 min at a pressure of 2 psi. Following dyes application, the controlled valves were closed and the device was incubated for 30 min at 37° C. 5% CO2 to allow cells staining. […]

MCF-7 cells [5] = assay: MCF-7 cell response to a printed drug array, live/dead assay; type: cell-based; conditions: drugs spotted at 0, 0.1, 0.5, 0.7 and 1 mM; 2 hours incubation
Method: MCF7 cells response to 4 different drugs (Doxorubicin, Docetaxel, Pacletoxel, Methotrexate) at 4 different concentrations (0.1-1 mM). The drugs were printed on the slide and aligned into drug chamber inside the device. Live/dead assay was performed by double staining dead cells (Red) and live cells (Green).
The evaluation of anticancer drug effect on cells vitality was conducted in two steps. First, Docetaxel was used, which is one of the first-line chemotherapies used for metastatic breast cancer. Docetaxel, at different concentrations (1 uM, 10 uM and 100 uM), was flown into the microfluidics device for 5 minutes, following the cell accommodation period. Then the cells, were incubated with the drug for 2 hours. Cell feeding, by diffusion, commenced until the experiment was finished. Live/dead assay was applied up to 48 hours following drug administration. After the evaluation of cells response to one drug-Docetaxel the effect was tested of an array of drugs on the cells. The drugs were printed on a glass substrate and their spotted array was aligned to the drug chamber in the microfluidic device.
Custom assays for cells vitality evaluation were applied. Living cells were stained with Calcein-AM (50 ng/ul in DMEM medium) (Biotest, Israel) which colors the cytoplasm. Dead cells were stained with Propidium Iodide (PI) (Sigma, Israel) (15 ng/ul in DMEM medium), coloring the nuclear. All cells nuclear (live and dead) were stained by Hoechst 33342 stain (Bis-Benzimide H3342 trihydro-chloride, Sigma, Israel) (10 ng/μl in DMEM medium). A solution of all three dyes was prepared and flowed within the chip. The cells were washed with the solution for 20 min at a pressure of 2 psi. Following dyes application, the controlled valves were closed and the device was incubated for 30 min at 37° C. 5% CO2 to allow cells staining. Next, the valves were opened and the device was washed by phenol-free DMEM medium for 15 min, to remove colures remains.
The drugs, Doxorubicin (Doxorubicin hydrochloride, Tocirs, USA), Docetaxel, Paclitaxel Methotrexate (drugs were supplied with the courtesy of Dr. Levanon, The institute of Oncology, Chaim Sheba Medical Center, Israel), were spotted on a microscope slide at 5 different concentrations (0, 0.1, 0.5, 0.7 and 1 mM) and then covered with the microfluidic device, encompassing the thy drugs inside the drug chamber. Cells were seeded on the device and cultured for 2 hours. Then the valve blocking the drug chamber was opened and the drugs were flooded and allowed to diffuse out and incubated with the cells for 2 hours. A different response was observed dynamics to the different drugs, expressed by different mortality rates.

MCF-7 cells [6] = assay: Doxorubicin treatment specificity in microfluidic device, MCF-7 cells; conditions: drug sensitive MCF7 cells; 24 hours of 10 μM doxorubicin
[7] = system: MCF-7/dx (Doxorubicin resistant cells); assay: Doxorubicin treatment specificity in microfluidic device, Doxorubicin resistant MCF-7/dx cells; conditions: drug resistant MCF7/Dx cells; 24 hours of 10 μM doxorubicin
[8] = in vivo; cited from earlier work

CCc1cc2c(cc1N1CCC(N3CCOCC3)CC1)C(C)(C)c1[nH]c3cc(C#N)ccc3c1C2=O [Alectinib]
24 hours drug response of patient samples (resistance / sensitivity) [1]: All samples were resistant; also recorded: all the patients were resistant | patient response to treatment (patient history) [2]: developed resistance

C[C@@H](Oc1cc(-c2cnn(C3CCNCC3)c2)cnc1N)c1c(Cl)ccc(F)c1Cl [Crizotinib]
24 hours drug response of patient samples (resistance / sensitivity) [1]: varying sensitivity; also recorded: varying from resistance to medium or high response | patient response to treatment (patient history) [2]: the response was different between patients

CC(=O)O[C@@]12CO[C@@H]1C[C@H](O)[C@@]1(C)C(=O)[C@H](O)C3=C(C)[C@@H](OC(=O)[C@H](O)[C@@H](NC(=O)OC(C)(C)C)c4ccccc4)C[C@@](O)([C@@H](OC(=O)c4ccccc4)[C@H]21)C3(C)C [Docetaxel]
mortality rate of MCF7 cells post drug exposure (MCF7 cells): significantly increased (p<0.05) within 5 hours post drug exposure with no further increase in mortality rate up to 48 hours | mortality rate of 293T cells post drug exposure (293T cells): increase in mortality rate after 5 hrs (p<0.05) with no further deterioration | cells vitality immediately after 2 hrs of drug exposure (T0 drug) [3]: no differences in cells vitality | cells mortality rate twenty hours post cultivation ([3]; 20 hours): following drug exposure a further significant increase was observed (p<0.05) | mortality at 1 µM ([4]; read-out: Cluster mortality rate (Mean±S.E)): 33 ± 5% | mortality at 1 µM ([4]; read-out: mortality rate of the dispersed cells population (Mean±S.E)): 65 ± 6% | dose dependence of sensitivity of MCF-7 cells (MCF-7 cells [5]): dose dependence sensitivity was observed | mortality rate of MCF-7 cells versus drug dose (MCF-7 cells [5]): mortality rate increased starting from the lower dose of drug (0.1 mM) (p<0.05)

COc1cccc2c1C(=O)c1c(O)c3c(c(O)c1C2=O)C[C@@](O)(C(=O)CO)C[C@@H]3O[C@H]1C[C@H](N)[C@H](O)[C@H](C)O1 [Doxorubicin]
dose dependence of sensitivity of MCF-7 cells (MCF-7 cells [5]): dose dependence sensitivity was observed | mortality rate of MCF-7 cells versus drug dose (MCF-7 cells [5]): mortality rate increased starting from the lower dose of drug (0.1 mM) (p<0.05) | cells showing morphological features of apoptotic/necrotic processes (MCF-7 cells [6]): about 98% | morphological features of apoptotic/necrotic processes [7]: almost absent

CN(Cc1cnc2nc(N)nc(N)c2n1)c1ccc(C(=O)N[C@@H](CCC(=O)O)C(=O)O)cc1 [Methotrexate]
dose dependence of sensitivity of MCF-7 cells (MCF-7 cells [5]): dose dependence sensitivity was observed | mortality rate of MCF-7 cells versus drug dose (MCF-7 cells [5]): mortality rate increased starting from the lower dose of drug (0.1 mM) (p<0.05)

CC(=O)O[C@H]1C(=O)[C@@]2(C)[C@H]([C@H](OC(=O)c3ccccc3)[C@]3(O)C[C@H](OC(=O)[C@H](O)[C@@H](NC(=O)c4ccccc4)c4ccccc4)C(C)=C1C3(C)C)[C@]1(OC(C)=O)CO[C@@H]1C[C@@H]2O [Paclitaxel]
dose dependence of sensitivity of MCF-7 cells (MCF-7 cells [5]): dose dependence sensitivity was observed | mortality rate of MCF-7 cells versus drug dose (MCF-7 cells [5]): mortality rate increased starting from the lower dose of drug (0.1 mM) (p<0.05)

Infliximab: purified, recombinant DNA-derived chimeric human-mouse IgG monoclonal antibody against TNF-α
serum half-life [8]: 228 h | time detectable in serum after infusion treatment [8]: 8 weeks
